Each structure is given as a SMILES string. pIC50, pKi: −log10 of the molar value.

The species named for assay [1] is Rattus norvegicus. Kind of assay: Compound tested for inhibitory activity against [3H]dopamine uptake in synaptosomes from rat caudate nucleus. More on the design: species or system Brain.
The species entered for assay [2] is Rattus norvegicus. Kind of assay: Binding affinity against [3H]mazindol.
The species entered for assay [3] is Rattus norvegicus. In words: Effect on cocaine inhibition of [3H]dopamine uptake at 50 uM.
The species named for assay [4] is Rattus norvegicus. In words: Effect on cocaine inhibition of [3H]dopamine uptake at 200 uM.
The species named for assay [5] is Rattus norvegicus. Kind of assay: Effect on cocaine inhibition of [3H]-dopamine uptake at 500 uM.
The species entered for assay [6] is Rattus norvegicus. In words: Effect on cocaine inhibition of [3H]dopamine uptake.

The pKi is −log10 of the Ki, conventionally taken in molar units. The low end stands for a high Ki, the high end for a low Ki. As for `COC(=O)[C@@H]1C2C[C@H](OC)[C@H](C[C@@H]1OC(=O)c1ccccc1)N2C` (mixture of isomers), the pKi in the assay listed under Rattus norvegicus [1] is 4.17; in the assay filed under Rattus norvegicus [2], 4.01.
Regarding `COC(=O)[C@@H]1C2[C@H](OC)C[C@H](C[C@@H]1OC(=O)c1ccccc1)N2C` (mixture of isomers), the figures for the pKi in the assay filed under Rattus norvegicus [1] and in the assay listed under Rattus norvegicus [2] were 5.21 and 5.38, respectively.
A word on the pIC50: it is the negative decadic logarithm of the IC50, by convention in mol/L. As to `COC(=O)[C@H]1C2[C@@H](OC)C[C@H](C[C@@H]1OC(=O)c1ccccc1)N2C` (mixture of isomers), the pKi in the assay listed under Rattus norvegicus [1] was 3.70; in the assay filed under Rattus norvegicus [2] it was 4.27. Moreover, the pIC50 was 6.30 in the assay listed under Rattus norvegicus [3] and 6.03 in the assay filed under Rattus norvegicus [4].
Consider `COC(=O)[C@H]1C2[C@H](OC)C[C@H](C[C@@H]1OC(=O)c1ccccc1)N2C` (mixture of isomers), for which the figures for the pKi in the assay filed under Rattus norvegicus [1] and in the assay filed under Rattus norvegicus [2] were 3.96 and 4.35, respectively.
Take `COC(=O)[C@H]1C2C[C@H](OC)[C@H](C[C@@H]1OC(=O)c1ccccc1)N2C` (mixture of isomers): the pKi in the assay listed under Rattus norvegicus [1] was 3.29; in the assay listed under Rattus norvegicus [2] it was 3.72. This molecule showed a pIC50 in the assay filed under Rattus norvegicus [5] of 5.99.
Regarding `COC(=O)[C@H]1[C@@H](OC(=O)c2ccccc2)C[C@@H]2CC[C@H]1N2C` [COCAINE], the pKi in the assay listed under Rattus norvegicus [1] was 6.49; in the assay filed under Rattus norvegicus [2], 6.55. Also, in the assay listed under Rattus norvegicus [6], the pIC50 was 6.47.
Take `COC(=O)[C@H]1C2CCC(C[C@@H]1OC(=O)c1ccccc1)N2` (stereo partly drawn) [PSEUDOCOCAINE]: the results for the pKi in the assay listed under Rattus norvegicus [1] and in the assay filed under Rattus norvegicus [2] were 4.86 and 4.98, respectively.

These data come from ChEMBL document CHEMBL1126548, “Methoxylation of cocaine reduces binding affinity and produces compounds of differential binding and dopamine uptake inhibitory activity: discovery of a weak cocaine "antagonist"” (J Med Chem, 1993).
